Entries after “also recorded” stand apart in the source; their conditions may differ.
Key:
E. coli (ATCC 8739) = assay: Labeling of viable or dead E. coli, fluorescence microscopy; type: cell-based, Escherichia coli; conditions: 15 µM, 30 min at 37 °C, Figure 4
Description: Escherichia coli (E. coli) (ATCC 8739) and Bacillus subtilis (B. subtilis) (ATCC 6633) strains were routinely grown in Luria Bertani (LB) broth or on LB agar plates for 18h at 37 °C. Waterborne environmental bacteria such as Enterobacter cloacae (E. cloacae), Chryseobacterium indologenes (C. indologenes), Pseudomonas aeruginosa (P. aeruginosa), and E. coli (EC18) were purchased from Eurofins™. Environmental bacteria were grown in LB broth or on casein-peptone soymeal-peptone agar plates for 18h at 37 °C.
For the staining tests, E. coli (ATCC 8739 or EC18), E. cloacae, C. indologenes, P. aeruginosa and B. subtilis were cultivated in Luria-Bertani (LB) broth until exponential phase at 37°C with shaking at 300 rpm revolutions per minutes (rpm). Bacteria were harvested and washed in sterile phosphate buffer saline solution (PBS) at pH […] by centrifugation at 10000 rpm for 3 min at room temperature (21 ± 2 °C). Then the bacteria were resuspended in PBS at a concentration of 1·10^9 bacteria/ml. Bacteria concentration was calculated according to the turbidity measure at 660 nm (A660nm=1 correspond to bacterial suspension at ∼ 5·10^8 bacteria/ ml).
Dead bacterial suspensions at 1·10^9 bacteria/ml (negative controls) of these five species of bacteria were prepared individually by addition of 20 µl of bleach containing 2.6 % active chlorine. Bacteria were treated with bleach solution for 15 min. Dead bacteria were washed twice in sterile PBS by centrifugation at 10000 rpm for 3 min at room temperature. The culturability of the negative controls was assessed by plating 100 µl of bacterial suspension onto LB agar or Caso agar and incubating the plates at 37 °C for 72 h.
Bacteria (100 µl suspension at 1·10^9 bacteria/ml) were stained with 10 µM or 15 µM of pro-fluorophore (5-CFDA, 5-PFDAE, 5-PFDAT, 5-PFDA, 5-COGDA, 5-POGDA or 5-POGAM) in 200 µl of PBS solution containing 0.6 % of glutaraldehyde. Bacteria were incubated at 37 °C for 10 - 60 min with pro-fluorophore in darkness. After bacterial staining, they were washed and resuspended in 100 µl of PBS as described above.
Staining of the bacterial suspension was observed under a fluorescent microscope. These bacteria were imaged with a Leica DM5500 microscope equipped with FITC filter. […] Images were collected with a 100x objective. Fluorescence intensity of stained bacterial suspension was also measured with FluoroLog®-3 (Horiba Jobin Yvon) spectrofluorometer equipped with sample stirring. Samples were placed in fluorescence grade quartz cuvette having a volume of 1 ml. The excitation wavelength used was 488 nm and emission wavelength used was 517 nm. The same experiment was repeated three times (n = 3).
The pro-fluorophores according to the present invention are preferably used to label E. coli cells. Viable or dead E. coli (ATCC 8739) are incubated with these fluorophores and commercial 5-CFDA as described above. […] Glutaraldehyde is added to the incubation solutions to improve the retention of the fluorophores in bacteria.
Bacteria were washed before being imaged with a Leica DM5500 microscope, 100x objective. Scale bars indicate 10 µm.

E. coli (EC18) = assay: Immunofluorescence and viability staining of E. coli; type: cell-based, Escherichia coli; conditions: 15 µM, 30 min at 37 °C, PBS containing 0.6 % glutaraldehyde
Description: Environmental E. Coli (EC18) were cultivated and re-suspended in PBS as described above. A dead bacterial suspension was also prepared as previously described. Dead or viable E. coli (EC18) (100 µl of suspension at 1.10^9 bacteria/ml) were incubated with rabbit anti-EC18 polyclonal antibodies (anti-EC18 pAb) (dilution 1/20) for 1 h at room temperature. This anti-EC 18 pAb was obtained from immunized rabbit with inactivated EC18 (Eurogentec). Bacteria were washed in PBS by centrifugation at 10000 rpm for 3 min at room temperature. Then, they were resuspended in 200 µl of PBS solution containing 0.6 % of glutaraldehyde with 15 µM of 5-POGDA and incubated for 30 min at 37 °C in the absence of light. Following several washes with PBS as described above, dead or viable E. coli (EC18) were re-suspended in 200 µl of PBS and incubated for 1 h at room temperature in the absence of light with AlexaFluor 568 labeled anti-rabbit immunoglobulin (dilution 1/1000) (Molecularprobes, A11036). Bacteria were washed twice and re-suspended in 100 µl of PBS. They were imaged with a Leica DM5500 microscope equipped with FITC and Cy3 filters. Images were collected with a 100x objective. The same experiment was repeated three times (n = 3).

In the case of `CCCNC(=O)c1ccc2c(c1)C(=O)OC21c2cc(F)c(OCOC(C)=O)cc2Oc2cc(OCOC(C)=O)c(F)cc21` [Example 5-POGAM, 2',7'-difluoro-3-oxo-5-(propylcarbamoyl)-3H-spiroisobenzofuran-1,9'-xanthene-3',6'-diyl diacetoxymethyl ether], the “staining of viable E. coli (microscopy)” value (E. coli (ATCC 8739)) is reported as “specifically stained with high fluorescence intensity”.
With `CCCNC(=O)c1ccc2c(c1)C(=O)OC21c2cc(F)c(OC(C)=O)cc2Oc2cc(OC(C)=O)c(F)cc21` [Example 5-POGDA, 2',7'-difluoro-3-oxo-5-(propylcarbamoyl)-3H-spiro[isobenzofuran-1,9'-xanthene]-3',6'-diyl diacetate] the “staining of viable E. coli (microscopy)” value (E. coli (ATCC 8739)) was “specifically stained with high fluorescence intensity” and the “green fluorescence of viable and dead E. coli (EC18) coated with antibodies” value (E. coli (EC18)) was “bright green fluorescence; also recorded: viable cells have a green fluorescence and dead cells have no green fluorescence”.
